Patent US6878746B2, “Carbamate and thiocarbamate podophyllotoxin derivatives, preparation method and pharmaceutical compositions containing them” (priority 2000, dated 2005)

Assays:
[1] = system: Lewis lung carcinoma (LLC); experiment: Anti-tumour activity on Lewis lung carcinoma; type: in vivo, B6D2F1 mice; conditions: D 4, 8, 12; for T/C %: increase in survival time; for Survivors D90: surviving animals on day 90, 7 animals per group
From the text: Lewis lung carcinoma (LLC) is a solid tumour that appeared spontaneously in the lungs of a C57B1/6 mouse and is maintained by successive transplants of fragments by the s.c. route. The LLC was obtained from the Division of Cancer Treatment, Tumor Repository, National Cancer Institute, Frederick, Md., USA. The mice, which are 4 to 6 weeks old, were obtained from Iffa Credo (Lyon, France), and weighed from 20 to 22 g at the beginning of the experiment.
On the first day of the experiment (D0), the tumours are removed and cut into fragments of approximately 30 mg which are immediately grafted by the s.c. route into the B6D2F1 mice. The mice into which the fragments have been implanted are then randomly divided into the treated groups and the control group (7 animals per group).
The parameter used for evaluating the anti-tumour activity is the increase in survival time.
In addition, the number of surviving animals in each group is counted at the end of the experiment on day 90.
The products were administered in accordance with the scheme shown below. The results are expressed as % T/C, calculated in the same manner as in the preceding test: […]

[2] = system: P388 (murine leukaemia); experiment: Anti-tumour activity on P388 leukaemia; type: in vivo, female BDF1 mice; conditions: 6.25 mg/kg, intravenous route on day 1; tumour cells inoculated i.p.
Procedure: Line P388 (murine leukaemia) was supplied by the National Cancer Institute (Frederick, USA). The tumour cells (10^6 cells) were inoculated on day 0 into the peritoneal cavity of female BDF1 mice (Iffa-Credo, France) weighing from 18 to 20 g (groups of 6 animals).
The products were administered by the intravenous route on day 1.
The anti-tumour activity is expressed as % T/C: [formula] For information only, the compound of Example 6 is active against P388 leukaemia and induces a T/C of 203% at 6.25 mg/kg. *Anti-tumour Activity of the Compounds on Lewis Lung Carcinoma: […]

[3] = system: murine leukaemia L1210; experiment: In vitro cytotoxicity, Microculture Tetrazolium Assay; type: cell-based; conditions: exposure for four doubling periods (48 or 96 hours)
Procedure: (§1) The compounds of the invention were tested on various human and murine cell lines: • murine leukaemia L1210, • epidermoid carcinoma A-431, • non-small-cell lung carcinoma A549, • small-cell lung carcinoma H69, • colon carcinoma HT29, • buccal epidermoid carcinoma KB-3-1.
(§2) The cells are cultured in RPMI 1640 complete culture medium comprising 10% foetal calf serum, 2 mM glutamine, 50 units/ml of penicillin, 50 μg/ml of streptomycin and 10 mM Hepes, pH 7.4. The cells are distributed on microplates and are exposed to the cytotoxic compounds for four doubling periods, that is to say 48 hours or 96 hours. The number of viable cells is then quantified by a colorimetric assay, the Microculture Tetrazolium Assay (J. Carmichael et al., Cancer Res.; 47, 936-942, (1987)). The results are expressed as IC50, the cytotoxic concentration that inhibits the proliferation of the treated cells by 50%.

[4] = system: L1210 cells; experiment: Action on the cell cycle (propidium iodide); type: cell-based, murine; conditions: 100 nM, after 21 hours; control: 20%
Procedure: L1210 cells are incubated for 21 hours at 37° C. in the presence of various concentrations of test compounds. The cells are then fixed using 70% ethanol (v/v), washed twice in PBS and incubated for 30 minutes at 20° C. in PBS that contains 100 μg/ml of RNAse and 50 μg/ml of propidium iodide. The results are expressed as a percentage of the cells that have accumulated in the G2+M phase after 21 hours compared with the control (control: 20%). At a concentration of 100 nM, the compound of Example 6 induces an 86% accumulation of the cells in the G2+M phase after 21 hours.

[5] = system: small-cell lung carcinoma H69; experiment: In vitro cytotoxicity, Microculture Tetrazolium Assay; type: cell-based, human; conditions: exposure for four doubling periods (48 or 96 hours)
Procedure: as §1, §2

[6] = system: buccal epidermoid carcinoma KB-3-1; experiment: as above; type: cell-based, human; conditions: exposure for four doubling periods (48 or 96 hours)
Procedure: as §1, §2

[7] = system: colon carcinoma HT29; experiment: as above; type: cell-based, human; conditions: exposure for four doubling periods (48 or 96 hours)
Procedure: as §1, §2

[8] = system: epidermoid carcinoma A-431; experiment: as above; type: cell-based, human; conditions: exposure for four doubling periods (48 or 96 hours)
Procedure: as §1, §2

[9] = system: non-small-cell lung carcinoma A549; experiment: as above; type: cell-based, human; conditions: exposure for four doubling periods (48 or 96 hours)
Procedure: as §1, §2

Molecule	T/C % ([1]; 25 mg/kg i.v.) [%]	Survivors D90 ([1]; 25 mg/kg i.v.)	T/C [2] [%]	IC50 [3] [µM]	T/C % ([1]; 3.12 mg/kg i.v.) [%]	Survivors D90 ([1]; 3.12 mg/kg i.v.)	accumulation of the cells in the G2+M phase [4] [%]	IC50 [5] [µM]	IC50 [6] [µM]	IC50 [7] [µM]	IC50 [8] [µM]	IC50 [9] [µM]
COc1cc([C@@H]2c3cc4c(cc3[C@@H](OC(=O)N(C)CCN(C)C)[C@@H]3COC(=O)[C@@H]23)OCO4)cc(OC)c1O [Example 1, (5S,5aS,8aS,9R)-9-(4-Hydroxy-3,5-dimethoxyphenyl)-8-oxo-5,5a,6,8,8a,9-hexahydro-furo[3′,4′:6,7]naphtho[2,3-d][1,3] dioxol-5-yl 2-(dimethylamino)ethyl(methyl)carbamate]	165	1/7										
(5S,5aS,8aS,9R)-9-(4-Hydroxy-3,5-dimethoxyphenyl)-8-oxo-5,5a,6,8,8a,9-hexahydro-furo[3′,4′:6,7]naphtho[2,3-d][1,3]dioxol-5-yl-2-(dimethylamino)ethylcarbamate [Example 6]			203	0.038	168	1/7	86	0.096	0.085	0.121	0.071	0.046
